Values of other authors in patent US20260248126A1, “BIOCIDE” (PURGOS APS, priority 2020, published 2026).

Details: cited from earlier work

## [Cl-].[Na+] [table salt (NaCl), NaCl]
  LD50 (rat, oral): 3000 mg
